The data set has as its system Homo sapiens. Description: Percent of the drug absorbed after administration to humans was determined. The class given is ADME, organism-based. Conditions: in vivo.
With `Cc1ccccc1N1C(=O)c2cc(S(N)(=O)=O)c(Cl)cc2NC1C` (stereo not drawn) [METOLAZONE], the Absorption worked out at 64%. As for `C=CCOc1ccccc1OCC(O)CNC(C)C` (stereo not drawn) [OXPRENOLOL], the figure is 97%; as for `O=C(O)c1cc(/N=N/c2ccc(S(=O)(=O)Nc3ccccn3)cc2)ccc1O` [SULFASALAZINE], 12%. Next, `NC[C@H]1CC[C@H](C(=O)O)CC1` [TRANEXAMIC ACID]: 55%. The molecule `OC[C@@H](O)[C@@H](O)[C@H](O)[C@H](O)CO` [MANNITOL] came in with an Absorption of 26%. As for `CCN1CCCC1CNC(=O)c1cc(S(N)(=O)=O)ccc1OC` (stereo not drawn) [SULPIRIDE], the figure is 36%; as for `CC(C)NCC(O)COc1cccc2[nH]ccc12` (stereo not drawn) [PINDOLOL], 92%; as for `OC[C@H]1O[C@@H](O[C@@H]2[C@@H](CO)O[C@](O)(CO)[C@H]2O)[C@H](O)[C@@H](O)[C@H]1O` [LACTULOSE], 0.6%. In turn, `OC[C@H]1O[C@H](OC[C@H]2O[C@H](O[C@]3(CO)O[C@H](CO)[C@@H](O)[C@@H]3O)[C@H](O)[C@@H](O)[C@@H]2O)[C@H](O)[C@@H](O)[C@H]1O` [RAFFINOSE] showed an Absorption of 0.3%. Next, `O=C(O)c1cc(/N=N/c2ccc(O)c(C(=O)O)c2)ccc1O` [OLSALAZINE]: 2.3%.

Molecule `C=CCc1ccccc1OCC(O)CNC(C)C` (stereo not drawn) [ALPRENOLOL] yielded an Absorption of 96%. As for `O=C(O)P(=O)(O)O` [FOSCARNET], the figure is 17%; as for `Cc1cc(=O)n(-c2ccccc2)n1C` [ANTIPYRINE], 97%.

The values above are taken from ChEMBL document CHEMBL1132208, “Molecular hashkeys: a novel method for molecular characterization and its application for predicting important pharmaceutical properties of molecules” (J Med Chem, 1999).
